# ChEMBL document CHEMBL1142143, “Library screen for inhibitors targeting norovirus binding to histo-blood group antigen receptors” (Antimicrob Agents Chemother, 2007)
# Assays:
# [1] = tested on: Norovirus; test: Inhibition of recombinant norovirus VA387 binding to human HBGA A antigen by EIA; format: functional
# [2] = tested on: Norovirus; test: Inhibition of norovirus recombinant VA387 binding to human HBGA B antigen by EIA; format: functional
# [3] = tested on: Norovirus; test: Inhibition of recombinant norovirus VA387 binding to human HBGA H antigen by EIA; format: functional
# [4] = tested on: Norovirus; test: Inhibition of recombinant norovirus Norwalk binding to human HBGA A antigen by EIA; format: functional
# [5] = tested on: Norovirus; test: Inhibition of recombinant norovirus Norwalk binding to human HBGA H antigen by EIA; format: functional
# [6] = tested on: Norovirus; test: Inhibition of recombinant norovirus VA207 binding to human HBGA Le antigen by EIA; format: functional
# [7] = tested on: Norovirus; test: Inhibition of recombinant norovirus MOH binding to human HBGA A antigen by EIA; format: functional
# [8] = tested on: Norovirus; test: Inhibition of recombinant norovirus MOH binding to human HBGA B antigen by EIA; format: functional
# [9] = Solubility of the compound; format: physicochemical
# [10] = Cytotoxicity against HeLa cells by MTS assay; format: cell-based; settings: human
# [11] = tested on: Norovirus; test: Inhibition of norovirus VA387 binding to HBGA A type antigen in human saliva at 10.9 uM by EIA; format: functional
# [12] = tested on: Norovirus; test: Inhibition of norovirus VA387 binding to HBGA A type antigen in human saliva at 2.2 uM by EIA; format: functional
# [13] = tested on: Norovirus; test: Inhibition of norovirus VA387 binding to HBGA A type antigen in human saliva at 13.7 uM by EIA; format: functional
# [14] = tested on: Norovirus; test: Inhibition of norovirus VA387 binding to HBGA A type antigen in human saliva at 11.7 uM by EIA; format: functional
# [15] = tested on: Norovirus; test: Inhibition of norovirus VA387 binding to HBGA A type antigen in human saliva at 11.8 uM by EIA; format: functional
# [16] = tested on: Norovirus; test: Inhibition of norovirus VA387 binding to HBGA A type antigen in human saliva at 9.3 uM by EIA; format: functional
# [17] = tested on: Norovirus; test: Inhibition of norovirus VA387 binding to HBGA A type antigen in human saliva at 12.8 uM by EIA; format: functional
# [18] = tested on: Norovirus; test: Inhibition of norovirus VA387 binding to HBGA A type antigen in human saliva at 13.6 uM by EIA; format: functional
# [19] = tested on: Norovirus; test: Inhibition of norovirus VA387 binding to HBGA A type antigen in human saliva at 4.8 uM by EIA; format: functional
# [20] = tested on: Norovirus; test: Inhibition of norovirus VA387 binding to HBGA A type antigen in human saliva at 9.1 uM by EIA; format: functional
# [21] = tested on: Norovirus; test: Inhibition of norovirus VA387 binding to HBGA A type antigen in human saliva at 9.6 uM by EIA; format: functional
# [22] = tested on: Norovirus; test: Inhibition of norovirus VA387 binding to HBGA A type antigen in human saliva at 8.1 uM by EIA; format: functional
SMILES,EC50 [1],EC50 [2],EC50 [3],EC50 [4],EC50 [5],EC50 [6],EC50 [7],EC50 [8],solubility [9],CC50 [10],further results
O=C(/C=C/c1ccc(-c2cc(Cl)cc(Cl)c2)o1)c1cccs1,10.9 µM,> 100 µM,> 100 µM,> 100 µM,> 100 µM,> 100 µM,> 100 µM,> 100 µM,400 µM,157 µM,inhibition at 10.9 µM [11]: 49%
CCC[n+]1cc(-c2ccccc2)nc(N2CCOCC2)n1.[I-],2.2 µM,5.8 µM,6.8 µM,15.6 µM,18.9 µM,> 100 µM,> 100 µM,> 100 µM,400 µM,158 µM,inhibition at 2.2 µM [12]: 49.3%
CCCOc1ccc(-c2cc(C(=O)N/N=C/c3ccc(OCC)cc3)[nH]n2)cc1,13.7 µM,> 100 µM,> 100 µM,> 100 µM,> 100 µM,> 100 µM,> 100 µM,> 100 µM,> 100 µM,12.3 µM,inhibition at 13.7 µM [13]: 51.1%
Cc1ccc(NC(=O)CC(c2ccccc2)c2ccccc2)cc1C,11.7 µM,> 100 µM,47.5 µM,> 100 µM,> 100 µM,> 100 µM,> 100 µM,> 100 µM,> 100 µM,40.3 µM,inhibition at 11.7 µM [14]: 51.4%
CC(C)OC(=O)CC(=O)CSc1nc(-c2ccc(F)cc2)cc(-c2cccs2)c1C#N,11.8 µM,7.9 µM,7.5 µM,35 µM,19.8 µM,> 100 µM,> 100 µM,> 100 µM,400 µM,220 µM,inhibition at 11.8 µM [15]: 50.9%
O=CC(=O)c1ccc2c(c1)Cc1cc(C(=O)C=O)ccc1-2,9.3 µM,44.6 µM,41.1 µM,> 100 µM,> 100 µM,> 100 µM,> 100 µM,> 100 µM,400 µM,52.7 µM,inhibition at 9.3 µM [16]: 53.8%
CCCCc1ccc(NC(=O)c2ccc(C)cc2)cc1,12.8 µM,32.5 µM,28.2 µM,53 µM,47.8 µM,> 100 µM,> 100 µM,> 100 µM,400 µM,180 µM,inhibition at 12.8 µM [17]: 54.3%
O=C(C(=O)c1ccc(C(=O)c2ccc(C(=O)C(=O)c3ccc(Sc4ccccc4)cc3)cc2)cc1)c1ccc(Sc2ccccc2)cc1,12.8 µM,35.3 µM,26.1 µM,> 100 µM,> 100 µM,> 100 µM,> 100 µM,> 100 µM,400 µM,263 µM,inhibition at 12.8 µM [17]: 46.1%
Cc1cc(O)c(Sc2c(O)cc(C)cc2C(C)(C)c2ccccc2)c(C(C)(C)c2ccccc2)c1,13.6 µM,49.5 µM,48.1 µM,> 100 µM,> 100 µM,> 100 µM,> 100 µM,> 100 µM,400 µM,70.6 µM,inhibition at 13.6 µM [18]: 48.9%
CCOC(=O)C1=C(C)OC(N)=C(C#N)C1c1ccc(OCc2ccc(C)cc2)c([N+](=O)[O-])c1 (stereo not drawn),4.8 µM,18.6 µM,11.9 µM,22.9 µM,24.5 µM,> 100 µM,16.5 µM,13.3 µM,400 µM,78.6 µM,inhibition at 4.8 µM [19]: 61.1%
CCCc1ccc(OCc2ccc(C(=O)N/N=C/c3ccc(Cl)cc3O)o2)cc1,9.1 µM,13.5 µM,7.2 µM,18.2 µM,36.3 µM,> 100 µM,> 100 µM,> 100 µM,400 µM,46.7 µM,inhibition at 9.1 µM [20]: 62.9%
Oc1ccc(/C=N/c2nccs2)c(O)c1,9.6 µM,26 µM,7.6 µM,> 100 µM,> 100 µM,> 100 µM,> 100 µM,> 100 µM,400 µM,324 µM,inhibition at 9.6 µM [21]: 45.3%
C=C(SCCNC(=O)NCCCCCCNC(=O)NCCSc1ccccc1O)/C(C)=C\C,8.1 µM,13.1 µM,14.2 µM,14.1 µM,22.6 µM,> 100 µM,> 100 µM,> 100 µM,400 µM,113 µM,inhibition at 8.1 µM [22]: 59.3%
